Test results taken from ChEMBL document CHEMBL3430912, “GSK Tres Cantos Anti-Kinetoplastid Screening (TCAKS) Data”.
pIC50: −log10 of the molar value.

How the values were obtained:
[1] = tested on: Trypanosoma brucei brucei; test: GSK_TCAKS: pIC50 Trypanosoma brucei viability assay using luminiscence. Assay plates (1536-well) were prepared. T. brucei cultures were harvested and counted in a CASY cell counter. A parasite suspension was prepared at a final concentration of 5 * 10^4 cells/mL in complete HMI9 medium and 6uL was dispensed to all wells containing compounds using a Multidrop Combi dispenser. 6uL of HMI9 media with 0.4% DMSO were dispensed to control columns. Plates were incubated for 24 h at 37C, 5% CO2 then tempered for 10 min at room temperature. ATP content was quantified by adding 4 uL of CellTiter-Glo Reagent (Promega) according to the manufacturer's instructions. Luminescence was measured using a ViewLux.; format: functional, organism-based; conditions: Lister 427, CASY
[2] = biological target: Sterol 14-alpha demethylase (Trypanosoma cruzi (strain CL Brener), UniProt Q7Z1V1); test: GSK_TCAKS: pIC50 CYP51 from Trypanosoma cruzi.; format: functional
Chain of Sterol 14-alpha demethylase (Q7Z1V1 whole entry): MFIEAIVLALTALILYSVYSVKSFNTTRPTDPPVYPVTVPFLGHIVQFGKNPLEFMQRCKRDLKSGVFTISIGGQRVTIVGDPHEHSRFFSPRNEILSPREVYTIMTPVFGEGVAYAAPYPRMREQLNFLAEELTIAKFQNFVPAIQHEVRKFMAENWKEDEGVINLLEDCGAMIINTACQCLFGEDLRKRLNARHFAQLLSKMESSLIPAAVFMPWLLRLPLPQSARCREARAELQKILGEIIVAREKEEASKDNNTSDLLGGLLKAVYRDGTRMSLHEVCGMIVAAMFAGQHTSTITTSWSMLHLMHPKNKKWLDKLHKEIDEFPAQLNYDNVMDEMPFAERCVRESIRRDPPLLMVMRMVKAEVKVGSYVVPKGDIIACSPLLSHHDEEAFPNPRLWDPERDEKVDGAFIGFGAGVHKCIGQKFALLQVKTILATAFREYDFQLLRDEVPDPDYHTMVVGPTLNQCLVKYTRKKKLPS

[3] = GSK_TCAKS: pIC50 HepG2 human cell line viability assay using luminiscence. […] Seeding density was checked to ensure that new mono-layers were not more than 50% confluent at the time of harvesting. Cell suspension was added to 500 mL of the same medium at a final density of 1.2 * 10^5 cells/mL. This cell suspension was dispensed (25 uL, 3000 cells per well) into 384-well clear-bottom plates using a Multidrop Combi dispenser. Prior to addition of the cell suspension, the screening compounds (250 nL) were pre-dispensed into the plates with an Echo liquid handler. Plates were incubated for 48 h at 37C, 5% CO2. After incubation, plates equilibrated at room temperature for 30 min before proceeding to develop the luminescent signal. The signal developer, CellTiter-Glo Reagent, was allowed to equilibrate at room temperature for 30 min and added to the plates (25uL per well) using a Multidrop Combi dispenser. Plates were left for 10 min at room temperature for stabilization and then read using a ViewLux.; format: toxicity, cell-based
Trypanosoma cruzi [4] = test: (§1) GSK_TCAKS: pIC50 Trypanosoma cruzi Imaging: Amastigotes/Cell. […] Cells were then washed once with PBS before infection. T. cruzi trypomastigotes, collected at days 5 to 8 after infection from LLC-MK2 parasite infected cultures, were allowed to swim out for 4h at 37C from a centrifuged pellet (2,500 rpm/10 min/room temperature). Trypomastigotes were then collected and counted in a CASY Cell Counter. Trypomastigotes, in supplemented DMEM, were added to H9c2 cultures in a multiplicity of infection of 1 and incubated for 18 h. Cells were washed once with PBS before incubation of the infected H9c2 monolayer with trypsin (Life-Technologies) to detach cells from the flask. Cells were counted in a CASY Cell Counter using a 150 um capillary and their density set at 5 * 10^4 cells per mL in supplemented assay DMEM. Infected H9c2 were dispensed into 384-well poly-lysine coated assay plates at 50uL per well using a Multidrop Combi dispenser. After seeding them, the plates were incubated at 37C, 5% CO2 for 72h. Cultures were then fixed and stained by addition of 50 uL of a solution containing 8% formaldehyde and 4 uM DRAQ5 DNA dye (BioStatus, UK) per well. […] Five images were collected per well for reliable statistical analysis. Automated image analysis was performed with a script developed on Acapella High Content Imaging and Analysis Software (PerkinElmer). Output: number of amastigotes per cell as infection level measurement.; format: functional, organism-based, Rattus norvegicus; conditions: H9c2, 4 h
Trypanosoma cruzi [5] = test: GSK_TCAKS: pIC50 Trypanosoma cruzi viability assay using beta-GAL activity. This assay was run at single shot at 5uM compound concentration per well. The biological reagents consisted of NIH-3T3 host cells and trypomastigotes parasitic cells; both cell types were set to a 3.3 * 10^5 cells/mL dilution in assay DMEM by means of a CASY cell counter device using a 60um capillary. 6 uL of the mixture were dispensed per well (about 1 * 10^3 host-cells and 1 * 10^3 parasites) with a Multidrop Combi dispenser. […] In all wells, the percentage of DMSO never exceeded 0.5%. Plates incubated for four days at 37C, 5% CO2. The substrate used for the assay fluorescence intensity (FLINT) readout was resorufin-beta-D-galactopiranoside (Sigma-Aldrich) at 5uM per well. It was diluted in PBS supplemented with the soft detergent Igepal (Fluka).; format: functional, organism-based, Mus musculus; conditions: Tulahuen, NIH3T3
Leishmania donovani [6] = test: GSK_TCAKS: pIC50 Leishmania donovani Imaging: Infected Macrophages. Assay plates (384-well) were prepared by adding 250nL of compound to each well. For single shot assay, the final compound concentration was 5 uM. […] Automated image analysis was performed with a script developed on Acapella High Content Imaging and Analysis Software (PerkinElmer). Output: Percent of infected macrophage cells were reported for each well.; format: functional, organism-based, Homo sapiens; conditions: THP-1
[7] = tested on: Trypanosoma brucei brucei; test: GSK_TCAKS: pIC50 Trypanosoma brucei viability assay using fluorescence intensity. Assay plates (1536-well) were prepared by dispensing 25nL of compound solution per well using an Echo acoustic dispenser (Labcyte).; format: functional, organism-based; conditions: Lister 427, 2 h
Leishmania donovani [8] = test: GSK_TCAKS: pIC50 Leishmania donovani viability assay using fluorescence intensity. Assay plates (1536-well) were prepared by adding 30nL per well of compound. For single shot assay, the final compound concentration was 5uM. […] Briefly, eGFP LdBOB axenic amastigotes were harvested, fixed and counted in a CASY cell counter (Roche-Applied Science). A final concentration of 1.5 * 10^5 cells per well were prepared in amastigote media containing 500 U/mL penicillin/streptomycin (Invitrogen) and 6uL was dispensed to each experimental well using a Multidrop Combi dispenser (Thermo Scientific). 6uL of assay media was dispensed to control columns used as reference for 100% compound response. Following incubation for 72 h at 37C, 5% CO2, 2 uL of resazurin was added to each well at a final concentration of 0.5 mM in phosphate buffered saline (PBS) with IGEPAL (Sigma-Aldrich), 0.05% (v/v).; format: functional, organism-based
Leishmania donovani [9] = test: GSK_TCAKS: pIC50 Leishmania donovani Imaging: THP-1 Host Macrophages. Assay plates (384-well) were prepared by adding 250nL of compound to each well. For single shot assay, the final compound concentration was 5 uM. […] Automated image analysis was performed with a script developed on Acapella High Content Imaging and Analysis Software (PerkinElmer). Output: THP-1 cell count were reported for each well.; format: functional, organism-based, Homo sapiens
Trypanosoma cruzi [10] = test: as §1, with “H2C9” for “Trypanosoma cruzi”, “H9c2 Host Cardiomyocytes.” for “Amastigotes/Cell.”, “Number” for “number”, “H9c2 Host Cardiomyocytes nuclei to determine drug-related cytotoxicity.” for “amastigotes per cell as infection level measurement.”; format: functional, organism-based, Rattus norvegicus; conditions: H9c2, 4 h
Leishmania donovani [11] = test: GSK_TCAKS: pIC50 Leishmania donovani Imaging: Amastigotes/Macrophages. Assay plates (384-well) were prepared by adding 250nL of compound to each well. For single shot assay, the final compound concentration was 5 uM. […] Automated image analysis was performed with a script developed on Acapella High Content Imaging and Analysis Software (PerkinElmer). Output: Average number of amastigotes per macrophage cell were reported for each well.; format: functional, organism-based, Homo sapiens; conditions: THP-1
Trypanosoma cruzi [12] = test: GSK_TCAKS: pIC50 Trypanosoma cruzi Imaging: Infected Cells. […] Cells were then washed once with PBS before infection. T. cruzi trypomastigotes, collected at days 5 to 8 after infection from LLC-MK2 parasite infected cultures, were allowed to swim out for 4h at 37C from a centrifuged pellet (2,500 rpm/10 min/room temperature). Trypomastigotes were then collected and counted in a CASY Cell Counter. Trypomastigotes, in supplemented DMEM, were added to H9c2 cultures in a multiplicity of infection of 1 and incubated for 18 h. Cells were washed once with PBS before incubation of the infected H9c2 monolayer with trypsin (Life-Technologies) to detach cells from the flask. Cells were counted in a CASY Cell Counter using a 150 um capillary and their density set at 5 * 10^4 cells per mL in supplemented assay DMEM. Infected H9c2 were dispensed into 384-well poly-lysine coated assay plates at 50uL per well using a Multidrop Combi dispenser. After seeding them, the plates were incubated at 37C, 5% CO2 for 72h. Cultures were then fixed and stained by addition of 50 uL of a solution containing 8% formaldehyde and 4 uM DRAQ5 DNA dye (BioStatus, UK) per well. […] Five images were collected per well for reliable statistical analysis. Automated image analysis was performed with a script developed on Acapella High Content Imaging and Analysis Software (PerkinElmer). Output: percentage of infected cells per well as a second infection marker.; format: functional, organism-based, Rattus norvegicus; conditions: H9c2, 4 h

Structure (SMILES)	pIC50 [1]	pIC50 [2]	IC50 at 48 h [3]	pIC50 (Trypanosoma cruzi [4])	pIC50 (Trypanosoma cruzi [5])	pIC50 (Leishmania donovani [6])	pIC50 [7]	pIC50 (Leishmania donovani [8])	pIC50 (Leishmania donovani [9])	pIC50 (Trypanosoma cruzi [10])	pIC50 (Leishmania donovani [11])	pIC50 (Trypanosoma cruzi [12])
Nc1nc(-c2ccccn2)nc(N)c1Cc1c(F)cccc1Cl	5.70	< 4.00	20 µM	5.80	5.80	5.90	5.60	5.60	4.50	5.90	6.00	5.70
Oc1cccnc1-c1nc(Cc2ccccc2)n[nH]1	5.00	< 4.00	79.4 µM	5.20	5.20	5.50	5.30	5.70	4.80	4.80	5.70	5.10
O=C(Nc1nnc(-c2ccccn2)[nH]1)C1CC1c1ccccc1 (configuration not stated)	4.70	< 4.00	> 100 µM	4.80	4.80	5.10	< 4.90	4.90	4.70	< 4.30	5.10	4.70
CCOc1ccc(NC(=O)c2ccc(NC(=O)NC3CCCCC3)cc2)cc1	6.30	< 4.00	> 100 µM	< 4.30	4.50	5.10	6.70	< 4.30	5.40	< 4.30	5.20	< 4.30
COc1ccc(S(=O)(=O)Nc2ccc(CN3CCN(C(=O)c4cccc(C#N)c4)CC3)cc2)cc1	6.20	< 4.00	> 100 µM	6.10	6.00	< 4.30	6.40	4.50	< 4.30	< 4.30	< 4.30	6.00
Cc1ccc(S(=O)(=O)Nc2ccc(CN3CCN(C(=O)c4cccc(C)c4)CC3)cc2)cc1	6.30	4.10	> 100 µM	6.50	6.30	4.40	6.60	4.60	4.40	< 4.30	4.50	6.50
Cc1ccc(Nc2nc(C3CCCN3Cc3cc[nH]n3)cs2)nc1 (configuration not stated)	5.40	5.20	31.6 µM	5.70	6.10	5.80	6.10	4.90	4.60	5.00	5.90	5.70
CC(c1ccccn1)N(C)Cc1nc2ccccc2n1C(C)C (configuration not stated)	5.00	4.50	25.1 µM	5.70	5.80	5.50	4.90	5.00	4.80	< 4.30	5.70	5.20
CC1CCCCN1C(=O)NCCc1coc(-c2ccc(F)cc2)n1 (configuration not stated)	6.80	< 4.00	> 100 µM	6.50	6.40	< 4.30	6.90	< 4.30	< 4.30	< 4.30	< 4.30	6.50
c1ccc(-c2nc(NC3CCCC3)c3ccccc3n2)nc1	5.20	< 4.00	15.8 µM	5.70	5.70	5.70	5.20	5.40	4.70	6.30	5.90	6.10
COc1cc(F)c2ncc(F)c(CCN3CC[C@H](NCc4cc5c(cn4)OCS5)[C@@H](O)C3)c2c1	6.30	4.50	50.1 µM	6.70	6.40	4.80	6.60	4.60	4.80	< 4.30	4.90	6.60
